According to patent US20240034727A1, “IMIDAZOLE COMPOUNDS AS INHIBITORS OF ENPP1” (STINGRAY THERAPEUTICS, INC., priority 2020, published 2024):

target: Recombinant Human ENPP-1 Protein (Homo sapiens (Human), UniProt P22413); test: ENPP1 Inhibition Assay; assay type: biochemical; settings: substrate Thymidine 5′-monophosphate p-nitrophenol ester; pH 9.0; 37° C. for 45 minutes; absorbance at 405 nm
Experimental: Assay Buffer: 1 mM CaCl2), 0.2 mM ZnCl2, 50 mM Tris, pH 9.0. Substrate: 8 mM Thymidine 5′-monophosphate p-nitrophenol ester sodium salt (Sigma Cat #T4510). Enzyme: […] Recombinant Human ENPP-1 Protein (R&D Cat #6136-EN-010) in DMSO in 96-well clear assay plates.
An eight point serial dilution of drugs was prepared in 10× in assay buffer with the final assay concentrations starting at 10 μM, 3 μM, 1 μM, 0.3 μM and 0 μM. A dilution of DMSO was included as a control. The assay plate was set up as follows with each well in duplicate: 81 μL assay buffer+10 μL ENPP1 inhibitor or DMSO+5 μL Substrate+4 μL Enzyme. Both the enzyme and substrate was added to opposite sides of the well to ensure that there was no interaction until all wells had both components. The plate was then centrifuged gently for 10 seconds, followed by an incubation at 37° C. for 45 minutes. The reaction was quantified by measuring absorbance at 405 nm using the Envision.
IC50 values are determined using GraphPad Prism 5 software. The data were entered as an X-Y plot into the software as percent inhibition for each concentration of the drug. The concentration values of the drug were log transformed and the nonlinear regression was carried out using the “sigmoidal dose-response (variable slope)” option within the GraphPad software to model the data and calculate IC50 values. The IC50 values reported are the concentration of drug at which 50% inhibition was reached.

Sequence of Recombinant Human ENPP-1 Protein (P22413 whole entry): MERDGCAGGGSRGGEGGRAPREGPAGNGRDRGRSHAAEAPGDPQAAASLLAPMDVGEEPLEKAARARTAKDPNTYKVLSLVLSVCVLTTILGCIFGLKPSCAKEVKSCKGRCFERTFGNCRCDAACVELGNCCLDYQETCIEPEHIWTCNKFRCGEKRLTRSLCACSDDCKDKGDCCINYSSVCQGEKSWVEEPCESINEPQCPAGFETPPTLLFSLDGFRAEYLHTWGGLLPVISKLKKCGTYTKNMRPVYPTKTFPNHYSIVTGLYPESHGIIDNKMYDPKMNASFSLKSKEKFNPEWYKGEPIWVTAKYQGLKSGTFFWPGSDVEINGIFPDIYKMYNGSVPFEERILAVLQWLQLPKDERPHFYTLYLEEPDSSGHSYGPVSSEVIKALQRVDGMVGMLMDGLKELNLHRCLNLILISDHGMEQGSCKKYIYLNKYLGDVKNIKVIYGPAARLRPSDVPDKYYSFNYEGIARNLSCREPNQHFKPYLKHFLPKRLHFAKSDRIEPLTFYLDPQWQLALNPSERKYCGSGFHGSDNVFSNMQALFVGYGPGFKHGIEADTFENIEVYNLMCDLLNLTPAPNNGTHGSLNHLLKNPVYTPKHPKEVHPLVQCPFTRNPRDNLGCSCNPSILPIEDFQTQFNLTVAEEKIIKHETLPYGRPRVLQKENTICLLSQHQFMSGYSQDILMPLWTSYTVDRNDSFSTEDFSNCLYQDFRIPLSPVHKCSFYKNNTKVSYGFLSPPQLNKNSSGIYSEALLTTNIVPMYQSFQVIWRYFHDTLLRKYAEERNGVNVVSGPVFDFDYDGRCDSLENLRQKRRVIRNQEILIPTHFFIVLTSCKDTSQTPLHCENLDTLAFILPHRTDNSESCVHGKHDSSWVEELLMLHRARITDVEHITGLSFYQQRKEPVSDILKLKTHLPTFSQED

First: COc1ccc(CNC(=O)CSc2nc(C(=O)O)c[nH]2)cc1OC [Compound I-32, 2-((2-((3,4-dimethoxybenzyl)amino)-2-oxoethyl)thio)-1H-imidazole-4-carboxylic acid]
Second: COc1ccc(NC(=O)CSc2nc(C(=O)O)c[nH]2)cc1OC [Compound I-3, 2-((2-((3,4-dimethoxyphenyl)amino)-2-oxoethyl)thio)-1H-imidazole-4-carboxylic acid]
The IC50 of the first is higher: 0.2 to 10 µM for the first, < 0.2 µM for the second. The second is the more potent here.

First: CNC(=O)c1c[nH]c(SCC(=O)Nc2ccc(OC)c(OC)c2)n1 [Compound I-2, 2-((2-((3,4-dimethoxyphenyl)amino)-2-oxoethyl)thio)-N-methyl-1H-imidazole-4-carboxamide]
Second: COc1ccc(NC(=O)CSc2nc(C(N)=O)c[nH]2)cc1OC [Compound I-1, 2-((2-((3,4-dimethoxyphenyl)amino)-2-oxoethyl)thio)-1H-imidazole-4-carboxamid]
The IC50 of the first is higher: 0.2 to 10 µM for the first, < 0.2 µM for the second.

First: COc1ccc(CNC(=O)CSc2nc(C(=O)O)c[nH]2)cc1 [Compound I-37, 2-((2-((4-methoxybenzyl)amino)-2-oxoethyl)thio)-1H-imidazole-4-carboxylic acid]
Second: O=C(CSc1nc(C(=O)O)c[nH]1)NCc1ccc(Cl)cc1 [Compound I-22, 2-((2-((4-chlorobenzyl)amino)-2-oxoethyl)thio)-1H-imidazole-4-carboxylic acid]
The IC50 of the first is lower: 0.2 to 10 µM for the first, > 10 µM for the second. The first is the more potent here.

COc1ccc(CNC(=O)CSc2nc(C(=O)O)c[nH]2)c(OC)c1 [Compound I-15, 2-((2-((2,4-dimethoxybenzyl)amino)-2-oxoethyl)thio)-1H-imidazole-4-carboxylic acid] and COc1ccc(NC(=O)CSc2nc(C(=O)O)c[nH]2)c(OC)c1F [Compound I-9, 2-((2-((3-fluoro-2,4-dimethoxyphenyl)amino)-2-oxoethyl)thio)-1H-imidazole-4-carboxylic acid] cannot be ordered by IC50: > 10 µM for the first, > 10 µM for the second.

Compared with CCOC(=O)c1c[nH]c(SCC(=O)Nc2ccc(OC)c(OC)c2)n1 [Compound I-6, ethyl 2-((2-((3,4-dimethoxyphenyl)amino)-2-oxoethyl)thio)-1H-imidazole-4-carboxylate], COc1ccc(NC(=O)CSc2nc(C(=O)OCCN(C)C)c[nH]2)cc1OC [Compound I-29, 2-(dimethylamino)ethyl 2-((2-((3,4-dimethoxyphenyl)amino)-2-oxoethyl)thio)-1H-imidazole-4-carboxylate] is higher in IC50: < 0.2 µM for the first, 0.2 to 10 µM for the second. The first is the more potent here.

COc1ccc(NC(=O)CSc2nc(C(=O)O)c[nH]2)cc1F [Compound I-10, 2-((2-((3-fluoro-4-methoxyphenyl)amino)-2-oxoethyl)thio)-1H-imidazole-4-carboxylic acid] and COc1ccc(NC(=O)CSc2nc(C(=O)O)c[nH]2)cc1Br [Compound I-34, 2-((2-((3-bromo-4-methoxyphenyl)amino)-2-oxoethyl)thio)-1H-imidazole-4-carboxylic acid] cannot be ordered by IC50: < 0.2 µM for the first, < 0.2 µM for the second.

COc1ccc(NC(=O)CSc2nc(-c3nnn[nH]3)c[nH]2)cc1OC [Compound I-28, 2-((4-(1H-tetrazol-5-yl)-1H-imidazol-2-yl)thio)-N-(3,4-dimethoxyphenyl)acetamide] and COc1ccc(NC(=O)CSc2nc(C#N)c[nH]2)cc1OC [Compound I-4, 2-((4-cyano-1H-imidazol-2-yl)thio)-N-(3,4-dimethoxyphenyl)acetamide] cannot be ordered by IC50: < 0.2 µM for the first, < 0.2 µM for the second.

First: O=C(CSc1nc(C(=O)O)c[nH]1)Nc1ccc(Cl)cc1F [Compound I-7, 2-((2-((4-chloro-2-fluorophenyl)amino)-2-oxoethyl)thio)-1H-imidazole-4-carboxylic acid]
Second: Cc1ccc(F)c(NC(=O)CSc2nc(C(=O)O)c[nH]2)c1 [Compound I-17, 2-((2-((2-fluoro-5-methylphenyl)amino)-2-oxoethyl)thio)-1H-imidazole-4-carboxylic acid]
The IC50 of the first is lower: 0.2 to 10 µM for the first, > 10 µM for the second.

First: O=C(CSc1nc(C(=O)O)c[nH]1)Nc1ccc(N2CCOCC2)cc1 [Compound I-24, 2-((2-((4-morpholinophenyl)amino)-2-oxoethyl)thio)-1H-imidazole-4-carboxylic acid]
Second: O=C(CSc1nc(C(=O)O)c[nH]1)Nc1ccc(Br)cc1 [Compound I-23, 2-((2-((4-bromophenyl)amino)-2-oxoethyl)thio)-1H-imidazole-4-carboxylic acid]
The IC50 of the first is higher: > 10 µM for the first, 0.2 to 10 µM for the second. The second is the more potent here.

O=C(CSc1nc(C(=O)O)c[nH]1)Nc1c(Cl)cccc1Cl [Compound I-18, 2-((2-((2,6-dichlorophenyl)amino)-2-oxoethyl)thio)-1H-imidazole-4-carboxylic acid] and O=C(CSc1nc(C(=O)O)c[nH]1)Nc1c(F)cccc1F [Compound I-13, 2-((2-((2,6-difluorophenyl)amino)-2-oxoethyl)thio)-1H-imidazole-4-carboxylic acid] cannot be ordered by IC50: > 10 µM for the first, > 10 µM for the second.

COc1cc(NC(=O)CSc2nc(C(=O)O)c[nH]2)cc(OC)c1 [Compound I-25, 2-((2-((3,5-dimethoxyphenyl)amino)-2-oxoethyl)thio)-1H-imidazole-4-carboxylic acid] and COc1cc(NC(=O)CSc2nc(C(=O)O)c[nH]2)c(OC)cc1Cl [Compound I-27, 2-((2-((4-chloro-2,5-dimethoxyphenyl)amino)-2-oxoethyl)thio)-1H-imidazole-4-carboxylic acid] fall in the same range of IC50: 0.2 to 10 µM for the first, 0.2 to 10 µM for the second.

COc1ccc(NC(=O)CSc2nc(C(=O)OCC(O)CO)c[nH]2)cc1OC (stereo not drawn) [Compound I-30, 2,3-dihydroxypropyl 2-((2-((3,4-dimethoxyphenyl)amino)-2-oxoethyl)thio)-1H-imidazole-4-carboxylate] and COc1ccc(NC(=O)CSc2nc(/C(N)=N/O)c[nH]2)cc1OC [Compound I-5, (Z)-N-(3,4-dimethoxyphenyl)-2-((4-(N′-hydroxycarbamimidoyl)-1H-imidazol-2-yl)thio)acetamide] cannot be ordered by IC50: < 0.2 µM for the first, < 0.2 µM for the second.

First: COc1ccc(NC(=O)CSc2nc(C(=O)O)c[nH]2)c(OC)c1OC [Compound I-26, 2-((2-oxo-2-((2,3,4-trimethoxyphenyl)amino)ethyl)thio)-1H-imidazole-4-carboxylic acid]
Second: COc1ccc(Br)cc1NC(=O)CSc1nc(C(=O)O)c[nH]1 [Compound I-36, 2-((2-((5-bromo-2-methoxyphenyl)amino)-2-oxoethyl)thio)-1H-imidazole-4-carboxylic acid]
The IC50 of the first is higher: > 10 µM for the first, 0.2 to 10 µM for the second. The second is the more potent here.

COc1cc(NC(=O)CSc2nc(C(=O)O)c[nH]2)ccc1Cl [Compound I-14, 2-((2-((4-chloro-3-methoxyphenyl)amino)-2-oxoethyl)thio)-1H-imidazole-4-carboxylic acid] and COc1ccc(NC(=O)CSc2nc(C(=O)O)c[nH]2)cc1C#N [Compound I-33, 2-((2-((3-cyano-4-methoxyphenyl)amino)-2-oxoethyl)thio)-1H-imidazole-4-carboxylic acid] cannot be ordered by IC50: < 0.2 µM for the first, < 0.2 µM for the second.

O=C(CSc1nc(C(=O)O)c[nH]1)NCc1cccc(Br)c1 [Compound I-11, 2-((2-((3-bromobenzyl)amino)-2-oxoethyl)thio)-1H-imidazole-4-carboxylic acid] and Cc1cccc(NC(=O)CSc2nc(C(=O)O)c[nH]2)c1C [Compound I-19, 2-((2-((2,3-dimethylphenyl)amino)-2-oxoethyl)thio)-1H-imidazole-4-carboxylic acid] cannot be ordered by IC50: > 10 µM for the first, > 10 µM for the second.

First: O=C(CSc1nc(C(=O)O)c[nH]1)Nc1ccc(Cl)cc1 [Compound I-20, 2-((2-((4-chlorophenyl)amino)-2-oxoethyl)thio)-1H-imidazole-4-carboxylic acid]
Second: Cc1ccc(NC(=O)CSc2nc(C(=O)O)c[nH]2)cc1C [Compound I-31, 2-((2-((3,4-dimethylphenyl)amino)-2-oxoethyl)thio)-1H-imidazole-4-carboxylic acid]
The IC50 of the first is lower: 0.2 to 10 µM for the first, > 10 µM for the second.

In the case of COc1ccc(Oc2ccc(NC(=O)CSc3nc(C(=O)O)c[nH]3)cc2)cc1 [Compound I-16, 2-((2-((4-(4-methoxyphenoxy)phenyl)amino)-2-oxoethyl)thio)-1H-imidazole-4-carboxylic acid], the IC50 is reported as 0.2 to 10 µM.
